The target of data set [1] is T1, ECE-1 (Bos taurus, UniProt P42891).
T1 construct: The entire coding regions from bovine ECE-1; made in house
T1 sequence (P42891 with tags, fused parts or gaps A87G/A695G limits assumed): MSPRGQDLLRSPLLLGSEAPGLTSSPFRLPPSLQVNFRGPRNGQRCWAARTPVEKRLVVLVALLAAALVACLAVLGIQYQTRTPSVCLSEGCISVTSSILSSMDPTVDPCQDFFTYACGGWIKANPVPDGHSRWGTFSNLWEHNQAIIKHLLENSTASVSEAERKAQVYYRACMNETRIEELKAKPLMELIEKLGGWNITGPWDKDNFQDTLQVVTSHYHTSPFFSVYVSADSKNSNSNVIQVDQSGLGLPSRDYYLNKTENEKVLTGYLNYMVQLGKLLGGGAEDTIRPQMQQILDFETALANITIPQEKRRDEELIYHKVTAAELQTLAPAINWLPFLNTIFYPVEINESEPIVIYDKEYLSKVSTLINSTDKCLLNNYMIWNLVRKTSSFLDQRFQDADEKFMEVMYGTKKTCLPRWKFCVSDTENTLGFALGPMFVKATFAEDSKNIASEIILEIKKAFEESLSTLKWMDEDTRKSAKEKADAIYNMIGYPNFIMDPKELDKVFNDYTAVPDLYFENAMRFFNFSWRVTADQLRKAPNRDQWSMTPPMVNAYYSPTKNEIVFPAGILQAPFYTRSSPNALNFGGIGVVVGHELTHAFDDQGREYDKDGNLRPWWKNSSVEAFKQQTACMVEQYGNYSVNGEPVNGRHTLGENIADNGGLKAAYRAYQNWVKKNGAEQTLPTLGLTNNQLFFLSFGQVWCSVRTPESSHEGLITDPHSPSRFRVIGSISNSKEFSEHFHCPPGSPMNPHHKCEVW
In words: ECE activity in solubilized CHO/ECE-1 membranes/homogenates, protease inhibitors (generation of mature ET-1 from big ET-1 by EIA). Type of data set: biochemical, bovine. The conditions noted are these: for inhibition of ECE activity (in words): CHO/ECE-1 membranes.
Protocol: Solubilized membranes were prepared from this homogenate as described under Purification of ECE, except that buffer B was used instead of buffer A. For protease inhibitor studies, membranes were prepared by using buffer B without pepstain A, PMSF and pCMS.

Data set [2] concerns the target T2, ECE (Bos taurus, UniProt Q28010).
T2 construct: full length 758 aa
T2 sequence (Q28010 1-758): T1 sequence (P42891 with tags, fused parts or gaps A87G/A695G limits assumed)
In words: ECE activity in bovine adrenal cortex membrane fractions. Type of data set: biochemical.
Protocol: Bovine adrenal glands were obtained at a local slaughter house, immediately immersed in ice-cold Dulbecco's phosphate buffered saline (PBS), and brought to the laboratory within 2 hours. All subsequent procedures were performed at 4° C. Adrenal cortices were carefully separated from the medulla and connective tissue. […] The homogenate was centrifuged at 1,000×g for 10 min, and the resulting supernatant was further centrifuged at 100,000×g for 60 min. The pellet was resuspended in 5×volume of buffer A by a Teflon homogenizer, and centrifuged again at 100,000×g for 60 min. The crude membrane pellet was solubilized at 10-20 mg protein/ml in buffer A containing 2.5% C12 E10 for 30 min. The mixture was centrifuged at 100,000×g for 60 min, and the supernatant was saved as solubilized membrane.

Another data set has as its target T3, human ETA receptor (Homo sapiens, UniProt P25101).
T3 sequence (P25101 21-427): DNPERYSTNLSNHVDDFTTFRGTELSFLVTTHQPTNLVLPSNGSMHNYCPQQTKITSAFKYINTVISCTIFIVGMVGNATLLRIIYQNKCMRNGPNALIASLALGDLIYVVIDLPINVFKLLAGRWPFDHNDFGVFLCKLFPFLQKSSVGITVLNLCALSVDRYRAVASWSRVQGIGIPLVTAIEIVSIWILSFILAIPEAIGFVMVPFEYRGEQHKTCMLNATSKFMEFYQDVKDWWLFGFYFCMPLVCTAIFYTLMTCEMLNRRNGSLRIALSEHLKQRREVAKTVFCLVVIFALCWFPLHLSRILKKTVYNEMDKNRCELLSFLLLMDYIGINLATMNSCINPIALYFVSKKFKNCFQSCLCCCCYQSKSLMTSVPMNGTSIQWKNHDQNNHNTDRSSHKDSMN
Put plainly: Ca2+ transient bioassay in CHO cells expressing human ETA receptors. Type of data set: cell-based.

Data set [3] addresses T1, ECE-1. Put plainly: Secretion of big and mature ET-1 by preproET-1-transfected CHO/ECE-1 cells (conversion of endogenous big ET-1). Type of data set: cell-based, bovine.
Protocol: (§1) Transient transfection of the preproET-1 cDNA was performed by the DEAE-dextran method as described (Sakurai et al., 1990). Twelve hours after transfection, cells were refed with fresh medium with or without ECE inhibitors. The medium was conditioned for an additional 12 hours and directly subjected to EIA for mature and big ET-1 (Suzuki et al., 1990; Suzuki et al., 1989). For the Ca^2+ transient bioassay (see below), Phenol Red-free CHO-SFM medium (Gibco/BRL) without serum was used in order to avoid artefacts induced by serum and the dye.
To examine whether the expressed ECE-1 can convert big ET-1 in intact cells, paired cultures of CHO/ECE-1 cells and untransfected CHO cells were transiently transfected with the preproET-1 construct. After the transient transfection, the amounts of mature and big ET-1 secreted into the medium were measured by EIA. […] The functional authenticity of the immunoreactive mature peptide produced from the double-transfected cells was examined with a bioassay system that uses another line of CHO cells expressing human ETA receptors as reporter cells. […] The cells were loaded with the Ca^2+ indicator Fura-2/AM, and directly challenged with serum-free, Phenol Red-free culture supernatants from the aforementioned double-transfection protocols. […] Next the supernatants from the preproET-1-transfected CHO/ECE-1 cells were added, so that the final concentration of ET-1 as measured by EIA was ≈20 pM.
Data set [4] concerns the target T1, ECE-1. In words: Production of mature ET-1 by 1:1 co-cultures of CHO/ECE-1 and CHO/preproET-1 cells (conversion of exogenous big ET-1). The class given is cell-based, bovine.
Protocol: as §1
Next, the ability of CHO/ECE-1 cells to convert exogenously supplied big ET-1 was examined by co-culturing the cells with a separate CHO cell line that was stably transfected with the preproET-1 construct (CHO/preproET-1 cells).
A further data set relates to CHO/ECE-1 cells. In words: Concentration of intact compound in culture medium by HPLC before and after culture with CHO/ECE-1 cells.
The subject of the next data set is endothelial ECE. As to conditions: cited from earlier work; for inhibition of endothelial ECE activity (in words): membranes and purified preparations.
Data set [5] concerns ECE. The conditions noted are these: cited from earlier work.
Data set [6] relates to cultured endothelial cells. As to conditions: cited from earlier work.
The conditions of data set [7]: ET-1(1-20) and ET-1(1-22) relative to authentic ET-1(1-21); cited from earlier work.
Data set [8] deals with T1, ECE-1. Put plainly: Substrate conversion / isopeptide selectivity of cloned ECE-1 (CHO/ECE-1 membranes or homogenate, EIA). The class given is biochemical, bovine. The conditions noted are these: in vitro; big endothelin isopeptides 0.1 μM. As to the method:
FIG. 2A. Functional expression of ECE-1 cDNA in transfected CHO cells.
FIG. 2E. Isopeptide selectivity of ECE-1 expressed in solubilized CHO/ECE-1 membranes. Designated synthetic big endothelin isopeptides (0.1 μM) were used as substrates and generation of corresponding mature peptides were measured by EIA.
Reaction mixtures for ECE assay (50 μl) contained 0.1M sodium phosphate buffer (pH 6.8), 0.5M NaCl, 0.1 μM human big ET-1(1-38) and enzyme fraction. For some studies, the reactions were preincubated at 37° C. with various protease inhibitors for 15 minutes prior to the addition of big ET-1. The reactions were incubated at 37° C. for 30 min in siliconized 0.5-ml microcentrifuge tubes. […] Duplicate assay wells were used for each enzyme reaction. Protein concentration was determined by the Bradford method (Bio-Rad) using IgG as standard.

For data set [9], the target named is T1, ECE-1. Put plainly: HPLC analysis of big ET-1 conversion by partially purified ECE-1 from CHO/ECE-1 cells. The class given is biochemical, bovine. The conditions noted are these: 5 μM big ET-1, 24 hr. On the procedure:
FIG. 3. HPLC analysis of big ET-1 conversion by partially purified ECE-1 from CHO/ECE-1 cells. ECE-1 was partially purified from solubilized CHO/ECE-1 membranes by WGA-agarose chromatography as described in Example 1. The enzyme fraction (800 μg protein) was incubated at 37° C. with 1 μM big ET-1 in 800 μl of ECE assay buffer. […] The reaction mixture was separated by HPLC as described in Example 1. Arrows indicate elution times of the authentic peptides.
Samples were injected into a C18 reverse-phase HPLC column (Ultrasphere ODS 5 μm, 4.6×250 mm; Beckman), which was eqhilibrated with 18% (v/v) acetonitrile/0.1% (v/v) TFA and maintained at 40° C. The column was eluted at a flow rate of 1 ml/min with an 18-30% linear gradient of acetonitrile in 0.1% TFA over 12 minutes followed by a 30-36% linear gradient over an additional 12 minutes. Peptides were detected by UV absorbance at 210 nm. […] To confirm chemical authenticity of immunoreactivity in culture supernatants, the conditioned medium was pre-extracted with a Sep-Pak C18 cartridge as described (Suzuki et al., 1989) before HPLC. HPLC fractions (0.5 ml) were collected and evaporated to dryness under vacuum. […] No other immunoreactive peaks were detected. […]

For orientation: inhibition means the relative decrease from the control value, in per cent. As usually defined, the IC50 is the concentration that inhibits the measured activity by half. Usually Km stands for the substrate concentration at which the rate is half of its maximum.

Entries after “also recorded” stand apart in the source; their conditions may differ. Ends that are not written are not given here.

Protocol for human ETA receptor: Bioassay of culture supernatants from preproET-1-transfected CHO/ECE-1 cells using CHO cells expressing human ETA receptors as reporter cells. Sup-A and Sup-B represents the serum-free medium conditioned for 12 hours with CHO/ECE-1 and CHO cells each transiently transfected with the preproET-1 construct, respectively.
For the Ca^2+ transient bioassay (see below), Phenol Red-free CHO-SFM medium (Gibco/BRL) without serum was used in order to avoid artefacts induced by serum and the dye.
A CHO stable transfectant clone expressing human ETA receptors was loaded with fura-2/AM, and ET-1 induced intracellular calcium transients were monitored by a Jasco CAM-110 Intracellular Ion Analyzer as previously described (Sakamoto et al., 1993).
The functional authenticity of the immunoreactive mature peptide produced from the double-transfected cells was examined with a bioassay system that uses another line of CHO cells expressing human ETA receptors as reporter cells. A stable transfectant cell line was obtained by transfecting CHO cells with a human ETA receptor construct (Sakamoto et al., 1993). […] Next the supernatants from the preproET-1-transfected CHO/ECE-1 cells were added, so that the final concentration of ET-1 as measured by EIA was ≈20 pM.

With `c1cnc2c(c1)ccc1cccnc12` [1,10-phenanthroline], the “inhibition of ECE activity (in words)” value against ECE-1 [1] (in vitro) is on record as “inhibited”.

With `C[C@H](CS)C(=O)N1CCC[C@H]1C(=O)O` [Captopril], the “inhibition of ECE activity (in words)” value against ECE-1 [1] (in vitro) is reported as “not inhibited; also recorded: not by thiorphan or captopril”.

As for `O=C(O)CN(CCN(CC(=O)O)CC(=O)O)CC(=O)O` [EDTA], at ECE [2] (read-out: inhibition of ECE activity), the inhibition at 1000 µM is above 90%.

With `CC(C)C[C@H](NC(=O)N1CCCCCC1)C(=O)N[C@H](Cc1cn(C)c2ccccc12)C(=O)N[C@H](Cc1ccccn1)C(=O)O` [FR139317], the “inhibition of Ca2+ response to CHO/ECE-1 supernatant (in words)” value against human ETA receptor (supernatant with ≈20 pM ET-1) is “completely abolished”.

With `COc1c2c(c(O)c3c1C(O)Cc1cc(CC(C)O)c(C(=O)O)c(O)c1-3)C(=O)c1cccc(O)c1C2=O` (stereo not drawn) [FR901533, 1,6,9,14-tetrahydroxy-3-(2-hydroxypropyl)-7-methoxy-8,13-dioxo-5,6,8,13-tetrahydro-benzo[a]naphthacene-2-carboxylate Na], the “inhibition of ECE activity (in words)” value at ECE-1 [1] (in vitro) is “efficiently inhibited”. Also, the IC50 was around 1500 nM on ECE-1 [1] (in vitro, solubilized CHO/ECE-1 membranes, read-out: apparent IC50 for inhibition of ECE activity) and around 1000 nM on ECE-1 [4]. At ECE-1 [3] (inhibitor added to medium), the “inhibition of production/secretion of mature ET-1 by live double-transfected cells (in words)” value is “did not inhibit”. For the same molecule, the “inhibition of conversion of exogenous big ET-1 (in words)” value at ECE-1 [4] (added to medium at low μM concentrations) is given as “efficiently inhibited”. Also, in the data set on CHO/ECE-1 cells (100 μM nominal, after 72-hr culture with CHO/ECE-1 cells), the “measured concentration in medium after culture” value amounted to 94 µM. For the same molecule, in the data set with CHO/ECE-1 cells (100 μM nominal, before 72-hr culture with CHO/ECE-1 cells), the “measured concentration in medium before culture” value came out at 93 µM. Besides, in the data set on CHO/ECE-1 cells (72-hr culture with CHO/ECE-1 cells), the “degradation by the cells (in words)” value is “not degraded”.

On ECE [2] (100 μM, bovine adrenal cortex membranes), `CC(C)C[C@H](NP(=O)(O)O[C@@H]1O[C@@H](C)[C@H](O)[C@@H](O)[C@H]1O)C(=O)N[C@@H](Cc1c[nH]c2ccccc12)C(=O)O` [Phosphoramidon] returned an inhibition at 100 µM above 90%. Besides, the “inhibition of endothelial ECE activity (in words)” value in the data set on endothelial ECE is “low μM range”. Also, the “inhibition of conversion of exogenous big ET-1 (in words)” value in the data set with ECE [5] (whole animals and isolated perfused organs, most assay systems) is listed as “consistently inhibits the conversion”. The “effect on production of mature ET-1 (in words)” value in data set [6] (added to the medium) is on record as “decreases the production of mature ET-1 in a dose dependent manner”.

`O=C(O)CNC(=O)C(CS)Cc1ccccc1` (stereo not drawn) [Thiorphan]: the “inhibition of ECE activity (in words)” value on ECE-1 [1] (in vitro) was “not inhibited; also recorded: not by thiorphan or captopril”. In addition, the “inhibition of endothelial ECE activity (in words)” value in the data set with endothelial ECE is “not by thiorphan”.

With `O=S(=O)(O)c1cc[c]([Hg][Cl])cc1` [pCMS, p-chloro-mercuriphenylsulphonic acid], the “ECE activity (% of ECE activity without inhibitors)” value on ECE-1 [1] (inhibitor 100 μM, means of duplicate assays from two independent experiments) is 298%.

For the molecule “ET-1(1-20): ET-1(1-20) (CSCSSLMDKECVYFCHLDII; ends and bridges not checked; cysteine pairing not given here; UniProt P05305 53-72, looked up, fragment)”, the “vasoconstrictor/biological activity (in words)” value in data set [7] is “at least three orders of magnitude weaker”.

As for “ET-1(1-22): ET-1(1-22) (CSCSSLMDKECVYFCHLDIIWV; ends and bridges not checked; cysteine pairing not given here; UniProt P05305 53-74, looked up, fragment)”, the “vasoconstrictor/biological activity (in words)” value in data set [7] is given as “at least three orders of magnitude weaker”.

As to “big ET-1(1-31): C-terminally truncated substrate (CSCSSLMDKECVYFCHLDIIWVNTPEHVVPY; ends and bridges not checked; cysteine pairing not given here; UniProt P05305 53-83, looked up, fragment)”, the “processing as ECE-1 substrate (in words)” value with ECE-1 [8] was “did not generate detectable levels of mature peptide; also recorded: cannot be an ECE-1 substrate”.

For the molecule “big ET-1: human big ET-1(1-38) obtained from American Peptides (CSCSSLMDKECVYFCHLDIIWVNTPEHVVPYGLGSPRS; ends and bridges not checked; cysteine pairing not given here; UniProt P05305 53-90, looked up)”, the “conversion of endogenous big ET-1 (intracellular)” value in the data set with ECE-1 [3] (CHO/ECE-1 cells, depending on experimental conditions) was 50-90%. The “concentration secreted in culture supernatant” value with ECE-1 [3] (preproET-1-transfected CHO/ECE-1 cells) stood at 46 pM. In the data set with ECE-1 [3] (preproET-1-transfected CHO/ECE-1 cells, no inhibitor), the “conversion of endogenous big ET-1 to mature peptide, typical culture” value is 84%. Further, the “conversion of exogenous big ET-1” value with ECE-1 [4] (co-culture with CHO/ECE-1 cells) is 5-10%. For the same molecule, in the data set with human ETA receptor (20 pM mature ET-1 (final), 1,000-fold higher concentration of big ET-1, supernatant at ≈20 pM ET-1), the “intracellular Ca2+ response of ETA reporter cells (in words)” value was “did not respond”. For the same molecule, in the data set with ECE-1 [8], the “processing as ECE-1 substrate (in words)” value was “more efficiently than big ET-2 and big ET-3”. In the data set with ECE-1 [9], the “conversion of big ET-1 into two peptide products” value was above 90% and the “product yield judged by areas under HPLC peaks” value is given as above 80%. In addition, in the data set with endothelial ECE (crude membranes and purified enzyme preparations, read-out: apparent Km of endothelial ECE), the Km is 1 to 10 µM. Moreover, the “phosphoramidon-sensitive conversion of exogenously administered big ET-1 (in words)” value in the data set on ECE [5] (isolated perfused tissues and whole animal preparations) is “only up to a few %”. In data set [6] (cultured endothelial cells), the “conversion of endogenously produced big ET-1” value is reported as 60-80%.

The record behind these values is patent publication US5688640A, “Methods of screening of effectors of endothelin converting enzyme-1” (Board of Regents, The University of Texas System, priority 1994, dated 1997).
